# Source: PubChem BioAssay (NCI)
#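 96-well plates; 48 h exposure; 5 concentrations. Endpoints by linear interpolation between flanking doses. Not reached: highest tested concentration assigned. TGI marks complete inhibition of growth.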
# Tests used:
# Test in all cases: NCI tumour cell line growth inhibition, 48 h
# 786-0 renal = system: 786-0 renal
# A498 renal = system: A498 renal
# A549 NSCLC = system: A549 NSCLC
# ACHN renal = system: ACHN renal
# BT-549 breast = system: BT-549 breast
# CAKI-1 renal = system: CAKI-1 renal
# CCRF-CEM leukemia = system: CCRF-CEM leukemia
# COLO 205 colon = system: COLO 205 colon
# DU-145 prostate = system: DU-145 prostate
# EKVX NSCLC = system: EKVX NSCLC
# HCC-2998 colon = system: HCC-2998 colon
# HCT-116 colon = system: HCT-116 colon
# HCT-15 colon = system: HCT-15 colon
# HL-60(TB) leukemia = system: HL-60(TB) leukemia
# HOP-62 NSCLC = system: HOP-62 NSCLC
# HOP-92 NSCLC = system: HOP-92 NSCLC
# HS 578T breast = system: HS 578T breast
# HT29 colon = system: HT29 colon
# IGROV1 ovarian = system: IGROV1 ovarian
# K-562 leukemia = system: K-562 leukemia
# KM12 colon = system: KM12 colon
# LOX IMVI melanoma = system: LOX IMVI melanoma
# M14 melanoma = system: M14 melanoma
# MALME-3M melanoma = system: MALME-3M melanoma
# MCF7 breast = system: MCF7 breast
# MDA-MB-231 breast = system: MDA-MB-231 breast
# MDA-MB-435 = system: MDA-MB-435
# MDA-N = system: MDA-N
# MOLT-4 leukemia = system: MOLT-4 leukemia
# NCI-H226 lung = system: NCI-H226 lung
# NCI-H23 lung = system: NCI-H23 lung
# NCI-H460 lung = system: NCI-H460 lung
# NCI-H522 lung = system: NCI-H522 lung
# NCI/ADR-RES ovarian = system: NCI/ADR-RES ovarian
# OVCAR-3 ovarian = system: OVCAR-3 ovarian
# OVCAR-4 ovarian = system: OVCAR-4 ovarian
# OVCAR-5 ovarian = system: OVCAR-5 ovarian
# OVCAR-8 ovarian = system: OVCAR-8 ovarian
# PC-3 prostate = system: PC-3 prostate
# RPMI-8226 leukemia = system: RPMI-8226 leukemia
# RXF 393 renal = system: RXF 393 renal
# SF-268 CNS = system: SF-268 CNS
# SF-295 CNS = system: SF-295 CNS
# SF-539 CNS = system: SF-539 CNS
# SK-MEL-2 melanoma = system: SK-MEL-2 melanoma
# SK-MEL-28 melanoma = system: SK-MEL-28 melanoma
# SK-MEL-5 melanoma = system: SK-MEL-5 melanoma
# SK-OV-3 ovarian = system: SK-OV-3 ovarian
# SN12C renal = system: SN12C renal
# SNB-19 CNS = system: SNB-19 CNS
# SR leukemia = system: SR leukemia
# SW-620 colon = system: SW-620 colon
# T-47D breast = system: T-47D breast
# TK-10 renal = system: TK-10 renal
# U251 CNS = system: U251 CNS
# UACC-257 melanoma = system: UACC-257 melanoma
# UACC-62 melanoma = system: UACC-62 melanoma
# UO-31 renal = system: UO-31 renal
# SNB-75 CNS = system: SNB-75 CNS
smiles,measurement,setting,value
O=C(O)c1nc2cc(Cl)ccc2[nH]c1=O,TGI,786-0 renal,> 100 µM
same,TGI,A498 renal,> 100 µM
same,TGI,A549 NSCLC,> 100 µM
same,TGI,ACHN renal,> 100 µM
same,TGI,BT-549 breast,> 100 µM
same,TGI,CAKI-1 renal,> 100 µM
same,TGI,CCRF-CEM leukemia,> 100 µM
same,TGI,COLO 205 colon,> 100 µM
same,TGI,DU-145 prostate,> 100 µM
same,TGI,EKVX NSCLC,> 100 µM
same,TGI,HCC-2998 colon,> 100 µM
same,TGI,HCT-116 colon,> 100 µM
same,TGI,HCT-15 colon,> 100 µM
same,TGI,HL-60(TB) leukemia,> 100 µM
same,TGI,HOP-62 NSCLC,> 100 µM
same,TGI,HOP-92 NSCLC,> 100 µM
same,TGI,HS 578T breast,> 100 µM
same,TGI,HT29 colon,> 100 µM
same,TGI,IGROV1 ovarian,> 100 µM
same,TGI,K-562 leukemia,> 100 µM
same,TGI,KM12 colon,> 100 µM
same,TGI,LOX IMVI melanoma,> 100 µM
same,TGI,M14 melanoma,> 100 µM
same,TGI,MALME-3M melanoma,> 100 µM
same,TGI,MCF7 breast,> 100 µM
same,TGI,MDA-MB-231 breast,> 100 µM
same,TGI,MDA-MB-435,> 100 µM
same,TGI,MDA-N,> 100 µM
same,TGI,MOLT-4 leukemia,> 100 µM
same,TGI,NCI-H226 lung,> 100 µM
same,TGI,NCI-H23 lung,> 100 µM
same,TGI,NCI-H460 lung,> 100 µM
same,TGI,NCI-H522 lung,> 100 µM
same,TGI,NCI/ADR-RES ovarian,> 100 µM
same,TGI,OVCAR-3 ovarian,> 100 µM
same,TGI,OVCAR-4 ovarian,> 100 µM
same,TGI,OVCAR-5 ovarian,> 100 µM
same,TGI,OVCAR-8 ovarian,> 100 µM
same,TGI,PC-3 prostate,> 100 µM
same,TGI,RPMI-8226 leukemia,> 100 µM
same,TGI,RXF 393 renal,> 100 µM
same,TGI,SF-268 CNS,> 100 µM
same,TGI,SF-295 CNS,> 100 µM
same,TGI,SF-539 CNS,> 100 µM
same,TGI,SK-MEL-2 melanoma,> 100 µM
same,TGI,SK-MEL-28 melanoma,> 100 µM
same,TGI,SK-MEL-5 melanoma,> 100 µM
same,TGI,SK-OV-3 ovarian,> 100 µM
same,TGI,SN12C renal,> 100 µM
same,TGI,SNB-19 CNS,> 100 µM
same,TGI,SR leukemia,> 100 µM
same,TGI,SW-620 colon,> 100 µM
same,TGI,T-47D breast,> 100 µM
same,TGI,TK-10 renal,> 100 µM
same,TGI,U251 CNS,> 100 µM
same,TGI,UACC-257 melanoma,> 100 µM
same,TGI,UACC-62 melanoma,> 100 µM
same,TGI,UO-31 renal,> 100 µM
CC1OC(OC2C(O)COC(OC3C(C)OC(OC4C(OC(=O)[C@]56CCC(C)(C)C[C@@H]5C5=CCC7[C@@]8(C)C[C@H](O)[C@H](OC9OC(CO)C(O)C(O)C9O)[C@@](C)(CO)[C@@H]8CC[C@@]7(C)[C@]5(C)CC6)OCC(O)C4O)C(O)C3O)C2O)C(O)C(O)C1O (stereo not given in full),TGI,786-0 renal,38 µM
same,TGI,A498 renal,36 µM
same,TGI,A549 NSCLC,43.6 µM
same,TGI,ACHN renal,44.3 µM
same,TGI,BT-549 breast,45.7 µM
same,TGI,CAKI-1 renal,32 µM
same,TGI,CCRF-CEM leukemia,45.8 µM
same,TGI,COLO 205 colon,38.7 µM
same,TGI,DU-145 prostate,37.5 µM
same,TGI,EKVX NSCLC,33.1 µM
same,TGI,HCC-2998 colon,38 µM
same,TGI,HCT-116 colon,57.2 µM
same,TGI,HCT-15 colon,50.8 µM
same,TGI,HOP-62 NSCLC,37.7 µM
same,TGI,HOP-92 NSCLC,45.2 µM
same,TGI,HS 578T breast,60.4 µM
same,TGI,HT29 colon,48.8 µM
same,TGI,K-562 leukemia,> 100 µM
same,TGI,KM12 colon,> 100 µM
same,TGI,LOX IMVI melanoma,46 µM
same,TGI,M14 melanoma,41.9 µM
same,TGI,MALME-3M melanoma,64.3 µM
same,TGI,MCF7 breast,> 100 µM
same,TGI,MDA-MB-231 breast,40.2 µM
same,TGI,MDA-MB-435,57.7 µM
same,TGI,MDA-N,42.3 µM
same,TGI,MOLT-4 leukemia,48.7 µM
same,TGI,NCI-H226 lung,50.2 µM
same,TGI,NCI-H23 lung,51.2 µM
same,TGI,NCI-H460 lung,48.6 µM
same,TGI,NCI-H522 lung,> 100 µM
same,TGI,NCI/ADR-RES ovarian,44.9 µM
same,TGI,OVCAR-3 ovarian,40.6 µM
same,TGI,OVCAR-4 ovarian,52.1 µM
same,TGI,OVCAR-5 ovarian,36.4 µM
same,TGI,OVCAR-8 ovarian,43.4 µM
same,TGI,PC-3 prostate,38.3 µM
same,TGI,RPMI-8226 leukemia,> 100 µM
same,TGI,RXF 393 renal,33.5 µM
same,TGI,SF-268 CNS,49.4 µM
same,TGI,SF-295 CNS,48 µM
same,TGI,SF-539 CNS,42.8 µM
same,TGI,SK-MEL-28 melanoma,32.2 µM
same,TGI,SK-MEL-5 melanoma,39.8 µM
same,TGI,SK-OV-3 ovarian,37.8 µM
same,TGI,SN12C renal,44.4 µM
same,TGI,SNB-19 CNS,38.7 µM
same,TGI,SNB-75 CNS,39 µM
same,TGI,SR leukemia,46.9 µM
same,TGI,SW-620 colon,46.5 µM
same,TGI,T-47D breast,47.4 µM
same,TGI,TK-10 renal,35.3 µM
same,TGI,U251 CNS,54.9 µM
same,TGI,UACC-257 melanoma,37 µM
same,TGI,UACC-62 melanoma,40.1 µM
same,TGI,UO-31 renal,28.4 µM
CCOC(=O)c1ccc(-n2cnc(-c3ccc([N+](=O)[O-])cc3)c2)cc1,TGI,786-0 renal,> 100 µM
same,TGI,A498 renal,> 100 µM
same,TGI,A549 NSCLC,> 100 µM
same,TGI,ACHN renal,> 100 µM
same,TGI,BT-549 breast,> 100 µM
same,TGI,CAKI-1 renal,> 100 µM
same,TGI,CCRF-CEM leukemia,> 100 µM
same,TGI,COLO 205 colon,> 100 µM
same,TGI,DU-145 prostate,> 100 µM
same,TGI,EKVX NSCLC,> 100 µM
same,TGI,HCC-2998 colon,> 100 µM
same,TGI,HCT-116 colon,> 100 µM
same,TGI,HCT-15 colon,> 100 µM
same,TGI,HL-60(TB) leukemia,> 100 µM
same,TGI,HOP-62 NSCLC,> 100 µM
same,TGI,HS 578T breast,> 100 µM
same,TGI,HT29 colon,> 100 µM
same,TGI,IGROV1 ovarian,> 100 µM
same,TGI,K-562 leukemia,> 100 µM
same,TGI,KM12 colon,> 100 µM
same,TGI,LOX IMVI melanoma,> 100 µM
same,TGI,M14 melanoma,> 100 µM
same,TGI,MALME-3M melanoma,> 100 µM
same,TGI,MCF7 breast,> 100 µM
same,TGI,MDA-MB-231 breast,> 100 µM
same,TGI,MDA-MB-435,> 100 µM
same,TGI,MDA-N,> 100 µM
same,TGI,MOLT-4 leukemia,> 100 µM
same,TGI,NCI-H226 lung,> 100 µM
same,TGI,NCI-H23 lung,> 100 µM
same,TGI,NCI-H460 lung,> 100 µM
same,TGI,NCI-H522 lung,36 µM
same,TGI,NCI/ADR-RES ovarian,> 100 µM
same,TGI,OVCAR-3 ovarian,> 100 µM
same,TGI,OVCAR-5 ovarian,> 100 µM
same,TGI,OVCAR-8 ovarian,> 100 µM
same,TGI,PC-3 prostate,> 100 µM
same,TGI,RPMI-8226 leukemia,> 100 µM
same,TGI,SF-268 CNS,> 100 µM
same,TGI,SF-295 CNS,> 100 µM
same,TGI,SF-539 CNS,> 100 µM
same,TGI,SK-MEL-2 melanoma,> 100 µM
same,TGI,SK-MEL-28 melanoma,> 100 µM
same,TGI,SK-MEL-5 melanoma,74.5 µM
same,TGI,SK-OV-3 ovarian,> 100 µM
same,TGI,SN12C renal,> 100 µM
same,TGI,SNB-19 CNS,> 100 µM
same,TGI,SNB-75 CNS,> 100 µM
same,TGI,SR leukemia,> 100 µM
same,TGI,SW-620 colon,> 100 µM
same,TGI,T-47D breast,> 100 µM
same,TGI,TK-10 renal,> 100 µM
same,TGI,U251 CNS,> 100 µM
same,TGI,UACC-257 melanoma,> 100 µM
same,TGI,UACC-62 melanoma,> 100 µM
same,TGI,UO-31 renal,> 100 µM
